Paper PMC3396687, “Moonlighting Peptides with Emerging Function” (PLoS ONE, 2012)
Like-named read-outs stand apart in the source and are kept apart here. Where no end group is shown, it is not given here.

How the values were obtained:
[1] = system: null mutant of the STE4 gene (BY4741 MATa ∆ste4); test: Screening for resistant gene deletions: STE4 null mutant; format: cell-based, Saccharomyces cerevisiae; details: 10 µM, Table S1 and Figure S1
Description: (§1) An early stationary culture for every essay was obtained from a single colony growing overnight in YPD medium. This culture was used to inoculate a fresh YPD medium to reach 0.04 O.D. in a total volume of 200 µL. Every peptide and strain were tested in 96 well plates, each well containing 200 µL, incubating at 30°C with shaking using a Bioscreen C (Oy Growth Curves Ab Ltd, Finland). The activity of these peptides on each strain was determined by following the cultures during 24 hrs and recording the O.D. every hour. Lack of change in O.D. measured during 24 hours was indicative of antifungal activity.
(§2) The cultures were prepared as in the antifungal activity assay described before (see above). To identify the strains lacking a gene required to inhibit in at least 50% the normal growth of the cells, the area under the growth curve (AUC) was calculated using software designed ad hoc in our laboratory. Thus, the ratio of the AUCs of the cells in the absence and in the presence of the peptide was determined; any strain rendering a ratio value between 1.0 and 2.0 was considered to carry a deletion of a critical gene.

[2] = system: S. cerevisiae WT (BY4741); test: Area under the growth curve (AUC), wild type control of gene screen; format: cell-based, Saccharomyces cerevisiae; details: 10 µM peptide, 24 h growth curve; control value of Figure S1
Description: as §1, §2

[3] = system: Human foreskin fibroblasts (HFF) cells; test: Toxicity against primary cultures of human cells (LIVE/DEAD)
Description: Human foreskin fibroblasts (HFF) cells were grown in high glucose DMEM (Invitrogen, Carlsbad, CA) supplemented with 10% fetal bovine serum (Sigma, St. Louis, MO) and penicillin/streptomycin 100 U/ml (Invitrogen, Carlsbad, CA). The cultures were incubated at 37 °C in 95% air and 5% carbon dioxide with 95% humidity. After 24 hr of plating, 15 micro liters of a stock solution of each peptide was added and 72 hr later cell viability was estimated using the LIVE/DEAD cytotoxicity kit (Molecular Probes L-3224, Invitrogen, Carlsbad, CA) according to manufacturer instructions (4 μM Eth D-1 and 2 μM Calcein AM were used). The esterase substrate calcein AM gives a green fluorescent product when hydrolyzed; therefore, cells stained green have esterase activity and consequently an intact membrane capable of retaining the esterase product. Ethidium homodimer-1, an impermeable dye that binds DNA, enters only into compromised cellular membranes commonly observed in death cells.
All these concentrations are the dry weight of each peptide.
Images were taken on a Nikon Eclipse TE300 fluorescence microscope from representative fields. Each peptide was tested in two independent assays, each performed in triplicates.

E. coli (DH10B) = format: cell-based, Escherichia coli; details: for antibacterial activity (in words): LB, see Table S2, Figure 1A and 1B; for MIC: LB medium, 37°C, 10 h, OD 600 nm, lowest concentration where no visible growth occurred, four independent experiments
Description: To evaluate the antibacterial activity of the Iztli peptides, the Escherichia coli DH1OB strain, Δ(mrr-hsd RMS-mcrBC) mcrA recA1 was used.
Serial dilutions of peptides were prepared in sterilized water. These concentrations are reported as the dry weight of each peptide. To determine the actual concentration of these peptides in solution, we estimated the molar absorption coefficient from the absorbance of each peptide at 214 nm using a spectrophotometer HP8452, kindly provided by Dr. Armando Gomez-Puyou. Then, the concentration of each peptide was calculated as: C = A/(L*MAC); where C: concentration (M), A: absorbance (arbitrary unit), L: length of the path of the spectrophotometer cell (cm) and MAC: the molar absorption coefficient (M^−1cm^−1).
The antibacterial activity of the synthetic peptides was examined in sterile 100-well plates (HC2 Pat. Pend., Finland) in a final volume of 200 µl as follows: aliquots (25 µl) of a suspension containing bacteria at a concentration of 10^5 CFU/mL in LB medium were added to 75 µl of water containing the peptide. The mixture was completed by the addition of 100 µl of 2×-concentrated LB medium. The plates were incubated at 37°C with constant orbital shaking for 10 h (at a rate specified by the equipment provider as “High”). Microbial growth was automatically determined by reading every 60 minutes the optical density at 600 nm with an OY Microplate Reader (Bioscreen C, Finland).
The minimum inhibitory concentration (MIC) was determined as the lowest concentration where no visible growth occurred. At least three different concentrations were tested for each peptide to find the corresponding MIC. All MICs were determined from four independent experiments. […]

bacteria = details: values marked (*), ref 36 ([3] in supplement, del Rio et al., 2001); cited from earlier work
From the text: Supplement pone.0040125.s019.doc, table 1: Supplementary Table S2. Designed selective antibacterial peptides | column: MIC (µM)

human cells = details: cited from earlier work
From the text: Supplement pone.0040125.s019.doc, table 1: Supplementary Table S2. Designed selective antibacterial peptides | column: Toxicity (µM)

[4] = system: MatA cells from Saccharomyces cerevisiae (BY4741); test: Antifungal activity (optical density growth curves); format: cell-based; details: YPD, 30°C, 24 h, OD and CFU; IP1 10 µM, fIP1 60 µM (Figure 3)
Description: as §1

isolated mitochondria = test: Mitochondrial swelling; format: biochemical, Saccharomyces cerevisiae; details: absorbance at 540 nm; IP1 117 µM, fIP1 100 µM, α-pheromone 160 µM (Figure 1C)
Description: We isolated mitochondria as described in Supporting Information S1 (see section I.2). Swelling of mitochondria was determined as reported before. Briefly, fresh mitochondria were diluted in 1 mL of 0.3 M mannitol, 5 mM MES, pH 6.8 (TEA) and 5 µL of ethanol. After 20 seconds, when optical density was stable, the peptides were added. The absorbance at 540 nm was recorded in a DW2 Aminco spectrophotometer (Olis, Inc, USA) in a split mode with magnetic stirring. A decrease in the absorbance was indicative of mitochondrial swelling. To determine the integrity of mitochondrial membranes, 10% of PEG 10 kDa (final concentration) was used to induce water release from mitochondria.
Mitochondria were obtained as described before. Briefly, yeast was incubated in YPD preculture medium for 24 h at 30° C, with agitation at 250 rpm, then the cells were cultured in YPlac at 30° C for 24 h at 250 rpm to improve respiration. Cells were collected and washed twice by centrifugation. The cells were suspended in cold isolating medium (5 mM MES, 0.6 M mannitol, 0.1% bovine serum albumin; the pH was adjusted to 6.8 with triethanolamine). The cells were disrupted into a Bead-Beater cell homogenizer (Biospec Products, USA) with 0.5 mm diameter glass beads, using three 20 seconds pulses separated by 40 seconds intervals. […] Protein concentration was determined by the Biuret method.

[5] = 72 hr exposure, calcein AM / ethidium homodimer-1 staining
[6] = HFF cells, 72 hr exposure, LIVE/DEAD kit, > means no toxicity at the tested concentration, two independent assays in triplicates

| Compound | toxicity on HFF cells (in words) [3, 5] | MIC (E. coli (DH10B)) | Toxicity [3, 6] | further results |
| --- | --- | --- | --- | --- |
| CSCC[C@H](NC(=O)[C@@H]1CCCN1C(=O)[C@H](CCC(N)=O)NC(=O)CNC(=O)[C@@H]1CCCN1C(=O)[C@H](CCCCN)NC(=O)[C@H](CC(C)C)NC(=O)[C@H](CCC(N)=O)NC(=O)[C@H](CC(C)C)NC(=O)[C@H](Cc1c[nH]c2ccccc12)NC(=O)[C@H](Cc1c[nH]cn1)NC(=O)[C@H](Cc1c[nH]c2ccccc12)NC(=O)[C@H](Cc1ccccc1)NC(=O)[C@H](CCCNC(=N)N)NC(=O)[C@H](CC(N)=O)NC(=O)[C@H](CC(C)C)NC(=O)[C@H](Cc1ccccc1)NC(=O)[C@@H](N)CCCCN)C(=O)N[C@@H](Cc1ccc(O)cc1)C(=O)O [IP1] | no toxicity |  |  | killing activity on STE4 null mutant [1]: resistant; area under the growth curve (AUC) [2]: 0.09; antibacterial activity (in words) (E. coli (DH10B)): presented anti-bacterial activity |
| RRLKDFWHWLQLKPGQPMY [IP2, 19-residue Iztli peptide: α-pheromone with 6 residues added at the N-terminus] |  | 20 µM |  | Toxicity [3]: >36 µM; toxicity on HFF cells (in words) [3]: no toxicity; antibacterial activity (in words) (E. coli (DH10B)): presented anti-bacterial activity |
| KWKLFKKI [PH(SCAP*)1] | not toxic |  | >460 µM |  |
| FLHSAKKF [PH(SCAP*)4] | not toxic | >300 µM | >500 µM |  |
| GKFLHSAK [PH(SCAP*)2] | not toxic | >300 µM | >500 µM |  |
| LKKLKLLLKLL [PH(CeMa)1] |  |  |  | Toxicity [3]: >90 µM; toxicity on HFF cells (in words) [3]: none of the peptides induced cell death |
| HSAKKFGK [PH(SCAP*)5] | not toxic | >300 µM | >500 µM |  |
| GIGKFLHSAKKFGKAFVGEIMNS [Magainin 2] |  |  |  | MIC (bacteria): 16 µM; Toxicity (human cells): >170 µM |
| KFLNRF [fIP1, the six residues at the N-terminus of IP1, control peptide] |  |  |  | antifungal (killing) activity [4]: did not exhibit any activity; mitochondrial swelling activity (isolated mitochondria): did not exhibit any activity |
| KWKLFKKIEKVGQNIRDGIIKAGPAVAVVGQATQIAK (Cecropin-A; UniProt P01507 27-63, looked up) [Cecropin A] |  |  |  | MIC (bacteria): 0.1 µM; Toxicity (human cells): >50 µM |
| KFLHSAKK [PH(SCAP*)3] | not toxic | >300 µM | >500 µM |  |
| LKKLLKLLL [PH(Magainin)1] |  |  |  | Toxicity [3]: >120 µM; toxicity on HFF cells (in words) [3]: none of the peptides induced cell death |
| GKFLHSAKKFGK [PH(SCAP*)6] | not toxic | >300 µM | >500 µM |  |
